This passage reports MIC results from ChEMBL document CHEMBL5537115, “New broad-spectrum and potent antibacterial agents with dual-targeting mechanism: Promoting FtsZ polymerization and disrupting bacterial membranes” (Eur J Med Chem, 2024).

Converted amounts (≈) assume the structure as drawn.

Common to all, as to assay type: functional
The subject of test [1] is Streptococcus pyogenes. Briefly: Antibacterial activity against erythromycin-resistant Streptococcus pyogenes 2 clinical isolate assessed as bacterial growth inhibition incubated for 20 hrs by CLSI based broth microdilution method.
Test [2] deals with Staphylococcus epidermidis. Briefly: Antibacterial activity against penicillin-resistant Staphylococcus epidermidis clinical isolate assessed as bacterial growth inhibition incubated for 20 hrs by CLSI based broth microdilution method.
For test [3], the system named is Staphylococcus aureus. The test is described as follows: Antibacterial activity against Staphylococcus aureus clinical isolate assessed as bacterial growth inhibition incubated for 20 hrs by CLSI based broth microdilution method.
Test [4] relates to Staphylococcus aureus. The test is described as follows: Antibacterial activity against penicillin-resistant Staphylococcus aureus ATCC31007 assessed as bacterial growth inhibition incubated for 20 hrs by CLSI based broth microdilution method.
The test system of test [5] is Staphylococcus aureus. Briefly: Antibacterial activity against methicillin-resistant Staphylococcus aureus ATCC43300 assessed as bacterial growth inhibition incubated for 20 hrs by CLSI based broth microdilution method.
A further test relates to Klebsiella pneumoniae. The test is described as follows: Antibacterial activity against Klebsiella pneumoniae ATCC BAA-1902 assessed as bacterial growth inhibition incubated for 20 hrs by CLSI based broth microdilution method.
The next test relates to Acinetobacter baumannii. Briefly: Antibacterial activity against Acinetobacter baumannii ATCC19606 assessed as bacterial growth inhibition incubated for 20 hrs by CLSI based broth microdilution method.
Test [6] concerns Escherichia coli. The test is described as follows: Antibacterial activity against wild-type Escherichia coli BW25113 assessed as bacterial growth inhibition incubated for 20 hrs by CLSI based broth microdilution method.
Test [7] concerns Escherichia coli. The test is described as follows: Antibacterial activity against penicillin-susceptible Escherichia coli ATCC25922 assessed as bacterial growth inhibition incubated for 20 hrs by CLSI based broth microdilution method.
In test [8] the test system is Enterococcus faecium. The test is described as follows: Antibacterial activity against vancomycin-susceptible Enterococcus faecium ATCC19434 assessed as bacterial growth inhibition incubated for 20 hrs by CLSI based broth microdilution method.
The test system of test [9] is Enterococcus faecalis. Briefly: Antibacterial activity against vancomycin-susceptible Enterococcus faecalis ATCC29212 assessed as bacterial growth inhibition incubated for 20 hrs by CLSI based broth microdilution method.
Test [10] has as its system Streptococcus pyogenes. Briefly: Antibacterial activity against erythromycin-susceptible Streptococcus pyogenes 1 assessed as bacterial growth inhibition incubated for 20 hrs by CLSI based broth microdilution method.
Test [11] deals with Staphylococcus aureus. The test is described as follows: Antibacterial activity against erythromycin-susceptible Staphylococcus aureus ATCC25923 assessed as bacterial growth inhibition incubated for 20 hrs by CLSI based broth microdilution method.
In the next test the test system is Bacillus pumilus. The test is described as follows: Antibacterial activity against penicillin-susceptible Bacillus pumilus CMCC63202 assessed as bacterial growth inhibition incubated for 20 hrs by CLSI based broth microdilution method.
Another test concerns Bacillus subtilis. Briefly: Antibacterial activity against penicillin-susceptible Bacillus subtilis ATCC9372 assessed as bacterial growth inhibition incubated for 20 hrs by CLSI based broth microdilution method.
Test [12] relates to Enterococcus faecalis. Briefly: Antibacterial activity against vancomycin-resistant Enterococcus faecalis ATCC51299 assessed as bacterial growth inhibition incubated for 20 hrs by CLSI based broth microdilution method.
The subject of test [13] is Enterococcus faecium. The test is described as follows: Antibacterial activity against vancomycin-resistant Enterococcus faecium ATCC51559 assessed as bacterial growth inhibition incubated for 20 hrs by CLSI based broth microdilution method.

As for `C[n+]1cc(-c2ccccc2)c(/C=C/c2ccc(Cl)c(Cl)c2)cc1-c1ccc(C(C)(C)C)cc1.[I-]`, the MIC in the test on Streptococcus pyogenes [1] was 4 mg/L; in test [2] it was 2 mg/L; in the test with Staphylococcus aureus [3], 1 mg/L; in the test with Staphylococcus aureus [4], 2 mg/L; in the test with Staphylococcus aureus [5], 1 mg/L; with Klebsiella pneumoniae, greater than 64 mg/L. In addition, the MIC was 4 mg/L with Acinetobacter baumannii; 8 mg/L with Escherichia coli [6]; greater than 64 mg/L in the test with Escherichia coli [7]; 1 mg/L in the test on Enterococcus faecium [8]; 2 mg/L in the test on Enterococcus faecalis [9]; 8 mg/L with Streptococcus pyogenes [10]. In addition, the MIC is 2 mg/L in the test with Staphylococcus aureus [11]; 2 mg/L in the test with Bacillus pumilus; 2 mg/L in the test on Bacillus subtilis; 2 mg/L in the test with Enterococcus faecalis [12]; 1 mg/L in the test with Enterococcus faecium [13].
In the case of `COc1ccc(/C=C/c2cc(-c3ccccc3)c[n+](C)c2-c2ccccc2)cc1.[I-]`, the MIC in the test on Streptococcus pyogenes [1] is 8 mg/L; in [2], 2 mg/L; with Staphylococcus aureus [3] it was 4 mg/L; in the test with Staphylococcus aureus [4] it was 64 mg/L; in the test on Staphylococcus aureus [5], 16 mg/L; in the test on Klebsiella pneumoniae it was greater than 64 mg/L. Further, the minimal inhibitory concentration (MIC) is 32 mg/L in the test on Acinetobacter baumannii; greater than 64 mg/L with Escherichia coli [6]; greater than 64 mg/L in the test with Escherichia coli [7]; 64 mg/L with Enterococcus faecium [8]; 32 mg/L in the test with Enterococcus faecalis [9]; 4 mg/L in the test on Streptococcus pyogenes [10]. For the same molecule, the MIC came to 2 mg/L in the test on Staphylococcus aureus [11]; 32 mg/L with Bacillus pumilus; 8 mg/L in the test with Bacillus subtilis; 64 mg/L in the test with Enterococcus faecalis [12]; 64 mg/L in the test on Enterococcus faecium [13].
As for `CCc1ccc(/C=C/c2cc(-c3ccc(C(C)(C)C)cc3)[n+](C)cc2-c2ccccc2C)cc1.[I-]`, the MIC with Streptococcus pyogenes [1] was 4 mg/L; in test [2], 1 mg/L; in the test with Staphylococcus aureus [3], 0.5 mg/L; with Staphylococcus aureus [4] it was 1 mg/L; with Staphylococcus aureus [5], 0.5 mg/L; with Klebsiella pneumoniae it was 8 mg/L. For the same molecule, the MIC in the test on Acinetobacter baumannii is 2 mg/L; in the test with Escherichia coli [6], greater than 64 mg/L; in the test with Escherichia coli [7], 4 mg/L; in the test on Enterococcus faecium [8] it was 1 mg/L; in the test on Enterococcus faecalis [9], 2 mg/L; in the test on Streptococcus pyogenes [10], 4 mg/L. The MIC in the test on Staphylococcus aureus [11] amounted to 0.125 mg/L; with Bacillus pumilus, 1 mg/L; in the test on Bacillus subtilis it was 0.5 mg/L; in the test with Enterococcus faecalis [12], 1 mg/L; in the test with Enterococcus faecium [13], 0.5 mg/L.
Turning to `C[n+]1cc(-c2ccccc2)cc(/C=C/c2ccc(C(F)(F)F)cc2)c1-c1ccccc1.[I-]`, the MIC in the test on Streptococcus pyogenes [1] was 2 mg/L; in [2], 8 mg/L; with Staphylococcus aureus [3] it was 2 mg/L; in the test with Staphylococcus aureus [4], 16 mg/L; in the test with Staphylococcus aureus [5], 4 mg/L; in the test on Klebsiella pneumoniae, greater than 64 mg/L. For the same molecule, the MIC is 16 mg/L in the test on Acinetobacter baumannii; greater than 64 mg/L with Escherichia coli [6]; greater than 64 mg/L with Escherichia coli [7]; 16 mg/L with Enterococcus faecium [8]; 8 mg/L in the test on Enterococcus faecalis [9]; 4 mg/L with Streptococcus pyogenes [10]. Also, the MIC was 1 mg/L in the test on Staphylococcus aureus [11]; 8 mg/L with Bacillus pumilus; 2 mg/L in the test with Bacillus subtilis; 16 mg/L with Enterococcus faecalis [12]; 8 mg/L in the test with Enterococcus faecium [13].
Turning to `CN(C)[C@@H]1C(O)=C(C(N)=O)C(=O)[C@@]2(O)C(O)=C3C(=O)c4c(O)cccc4[C@@](C)(O)[C@H]3C[C@@H]12` [TETRACYCLINE], the MIC was 64 mg/L (≈ 144 µM) in the test with Streptococcus pyogenes [1]; 32 mg/L (≈ 72 µM) in test [2]; 1 mg/L (≈ 2.25 µM) in the test with Staphylococcus aureus [3]; 64 mg/L (≈ 144 µM) in the test on Staphylococcus aureus [4]; 0.5 mg/L (≈ 1.13 µM) in the test on Staphylococcus aureus [5]; 32 mg/L (≈ 72 µM) with Klebsiella pneumoniae. Moreover, the MIC with Acinetobacter baumannii was determined as 8 mg/L (≈ 18 µM); with Escherichia coli [6], 2 mg/L (≈ 4.5 µM); in the test on Escherichia coli [7], 0.5 mg/L (≈ 1.13 µM); in the test with Enterococcus faecium [8], 2 mg/L (≈ 4.5 µM); with Enterococcus faecalis [9] it was 64 mg/L (≈ 144 µM); with Streptococcus pyogenes [10] it was 1 mg/L (≈ 2.25 µM). For the same molecule, the minimum inhibitory concentration (MIC) is 0.5 mg/L (≈ 1.13 µM) with Staphylococcus aureus [11]; 64 mg/L (≈ 144 µM) in the test on Bacillus pumilus; 0.5 mg/L (≈ 1.13 µM) in the test on Bacillus subtilis; 2 mg/L (≈ 4.5 µM) with Enterococcus faecalis [12]; 2 mg/L (≈ 4.5 µM) in the test on Enterococcus faecium [13].
On to `COc1ccc2cc3[n+](cc2c1OC)CCc1cc2c(cc1-3)OCO2` [BERBERINE], for which the MIC in the test with Streptococcus pyogenes [1] was greater than 64 mg/L; in [2], greater than 64 mg/L; with Staphylococcus aureus [3], 64 mg/L; in the test with Staphylococcus aureus [4], greater than 64 mg/L; in the test with Staphylococcus aureus [5], greater than 64 mg/L; in the test with Klebsiella pneumoniae it was greater than 64 mg/L. In addition, the MIC in the test with Acinetobacter baumannii, with Escherichia coli [6], with Escherichia coli [7], in the test with Enterococcus faecium [8], in the test with Enterococcus faecalis [9] and in the test with Streptococcus pyogenes [10] was greater than 64 mg/L in each case. In addition, the MIC in the test with Staphylococcus aureus [11] was 64 mg/L; in the test with Bacillus pumilus, greater than 64 mg/L; in the test with Bacillus subtilis, greater than 64 mg/L; in the test on Enterococcus faecalis [12] it was greater than 64 mg/L; in the test with Enterococcus faecium [13], greater than 64 mg/L.
In the case of `CCOc1ccc(/C=C/c2cc(-c3ccccc3)c[n+](C)c2-c2ccccc2)cc1.[I-]`, the MIC in the test on Streptococcus pyogenes [1] was 8 mg/L; in test [2] it was 16 mg/L; with Staphylococcus aureus [3], 2 mg/L; with Staphylococcus aureus [4], 16 mg/L; with Staphylococcus aureus [5], 8 mg/L; with Klebsiella pneumoniae, greater than 64 mg/L. For the same molecule, the MIC is 16 mg/L in the test with Acinetobacter baumannii; greater than 64 mg/L with Escherichia coli [6]; greater than 64 mg/L with Escherichia coli [7]; 32 mg/L in the test on Enterococcus faecium [8]; 16 mg/L in the test on Enterococcus faecalis [9]; 4 mg/L in the test on Streptococcus pyogenes [10]. Also, the MIC came to 2 mg/L in the test on Staphylococcus aureus [11]; 16 mg/L in the test with Bacillus pumilus; 4 mg/L in the test with Bacillus subtilis; 32 mg/L in the test with Enterococcus faecalis [12]; 16 mg/L with Enterococcus faecium [13].
In the case of `C[n+]1cc(-c2ccccc2)cc(/C=C/c2ccc(F)cc2)c1-c1ccccc1.[I-]`, the MIC in the test with Streptococcus pyogenes [1] was 8 mg/L; in test [2] it was 64 mg/L; in the test with Staphylococcus aureus [3] it was 8 mg/L; in the test with Staphylococcus aureus [4], 64 mg/L; with Staphylococcus aureus [5] it was 8 mg/L; with Klebsiella pneumoniae, greater than 64 mg/L. For the same molecule, the MIC in the test with Acinetobacter baumannii was 32 mg/L; in the test with Escherichia coli [6], greater than 64 mg/L; in the test on Escherichia coli [7], greater than 64 mg/L; in the test on Enterococcus faecium [8], 64 mg/L; in the test with Enterococcus faecalis [9], 64 mg/L; in the test on Streptococcus pyogenes [10], 8 mg/L. Moreover, the MIC with Staphylococcus aureus [11] was 2 mg/L; in the test with Bacillus pumilus it was 32 mg/L; in the test on Bacillus subtilis it was 8 mg/L; in the test with Enterococcus faecalis [12], greater than 64 mg/L; with Enterococcus faecium [13] it was 64 mg/L.
As for `C[n+]1cc(-c2ccccc2)cc(/C=C/c2ccc(C(C)(C)C)cc2)c1-c1ccccc1.[I-]`, the MIC in the test on Streptococcus pyogenes [1] came to 2 mg/L; in [2], 2 mg/L; in the test with Staphylococcus aureus [3], 2 mg/L; in the test on Staphylococcus aureus [4], 4 mg/L; in the test with Staphylococcus aureus [5] it was 1 mg/L; with Klebsiella pneumoniae it was 32 mg/L. The MIC came to 4 mg/L in the test on Acinetobacter baumannii; 16 mg/L with Escherichia coli [6]; 16 mg/L in the test with Escherichia coli [7]; 2 mg/L in the test on Enterococcus faecium [8]; 4 mg/L with Enterococcus faecalis [9]; 8 mg/L in the test on Streptococcus pyogenes [10]. The MIC in the test with Staphylococcus aureus [11] worked out at 0.25 mg/L; in the test on Bacillus pumilus, 2 mg/L; in the test on Bacillus subtilis, 0.5 mg/L; in the test with Enterococcus faecalis [12], 1 mg/L; in the test with Enterococcus faecium [13], 2 mg/L.
As for `C[n+]1cc(-c2ccccc2)c(/C=C/c2ccc(F)cc2)cc1-c1ccccc1.[I-]`, the MIC in the test on Streptococcus pyogenes [1] worked out at 2 mg/L; in [2] it was 2 mg/L; with Staphylococcus aureus [3] it was 1 mg/L; in the test on Staphylococcus aureus [4], 4 mg/L; in the test on Staphylococcus aureus [5] it was 1 mg/L; in the test with Klebsiella pneumoniae, 32 mg/L. For the same molecule, the MIC with Acinetobacter baumannii turned out to be 8 mg/L; in the test on Escherichia coli [6] it was 8 mg/L; with Escherichia coli [7], 8 mg/L; with Enterococcus faecium [8], 4 mg/L; in the test on Enterococcus faecalis [9] it was 4 mg/L; in the test with Streptococcus pyogenes [10], 2 mg/L. The MIC was determined as 0.125 mg/L with Staphylococcus aureus [11]; 2 mg/L with Bacillus pumilus; 0.5 mg/L in the test with Bacillus subtilis; 2 mg/L in the test on Enterococcus faecalis [12]; 8 mg/L in the test on Enterococcus faecium [13].
